Tested on: SARS-CoV-2
Experiment: SARS-CoV-2 antiviral assay (dose-response, automated confocal imaging of infected cells)
Assay type: cell-based, severe acute respiratory syndrome coronavirus-2
Conditions: SARS-CoV-2, Vero81-derived F1G-red cells, MOI 0.2, 16 h, compounds at 1.56-25 µM
Procedure: Dose-response experiments were conducted to determine half-maximal inhibitory concentration, IC50 of the compounds on severe acute respiratory syndrome coronavirus-2 (SARS-CoV-2). Vero81-derived F1G-red cells seeded in 384-well plate were inoculated with SARS-CoV-2 at a multiplicity of infection (MOI) of 0.2, at 37°C, in the presence of each compound at 1.56, 3.13, 6.25, 12.5 and 25 µM. Images were acquired 16 h later using an InCell-6500 automated confocal microscope (Cytiva, Marlborough, United States). Infected cells and total cell numbers were quantified as previously described. Percentage of infection relative to the DMSO controls were obtained and IC50 were calculated using Prism 10 software (Graph Pad Inc., La Jolla, CA, USA). […] Table 2. IC50 of pure and synthetic compounds on SARS-CoV-2

[1] = Severe acute respiratory syndrome coronavirus 2, 16 h

With CCC(=O)C1=C(O)C(CC=C(C)C)=C(O)C(CC=C(C)C)(CC=C(C)C)C1=O [AH17-F2, 3,5-dihydroxy-4,6,6-tris(3-methylbut-2-en-1-yl)-2-propionylcyclohexa-2,4-dien-1-one] the IC50 [1] was greater than 25 µM.
Work on CC(C)=CCC1=C(O)C(CC=C(C)C)(CC=C(C)C)C(=O)C(C(=O)C(C)C)=C1O [AH15-F1, 3,5-dihydroxy-2-isobutyryl-4,6,6-tris(3-methylbut-2-en-1-yl)cyclohexa-2,4-dien-1-one] yielded an IC50 [1] of less than 14 µM.
Compound CC(C)=CCC1=C(O)C(CC=C(C)C)(CC=C(C)C)C(=O)C(C(=O)C=Cc2ccccc2)=C1O [AH41-F1, 2-cinnamoyl-3,5-dihydroxy-4,6,6-tris(3-methylbut-2-en-1-yl)cyclohexa-2,4-dien-1-one] has an IC50 [1] of less than 25 µM.
For CCCC(=O)C1=C(O)C(CC=C(C)C)=C(O)C(CC=C(C)C)(CC=C(C)C)C1=O [AH10-F2, 2-butyryl-3,5-dihydroxy-4,6,6-tris(3-methylbut-2-en-1-yl)cyclohexa-2,4-dien-1-one], the IC50 [1] was less than 14 µM.
With CC(C)=CCc1c(O)cc(O)c(C(=O)C(C)C)c1O [AH62-F2, 2-methyl-1-(2,4,6-trihydroxy-3-(3-methylbut-2-en-1-yl)phenyl)propan-1-one] the IC50 [1] was less than 7 µM.
CC(C)=CCC1(CC=C(C)C)C(=O)C(C(=O)C(C)C)=C(O)C(C(=O)C(C)C)=C1O [AH66-F1, 1,1'-(2,4-dihydroxy-5,5-bis(3-methylbut-2-en-1-yl)-6-oxocyclohexa-1,3-diene-1,3-diyl)bis(2-methylpropan-1-one)] showed an IC50 [1] of less than 25 µM.
For CC(C)=CCC1=C(O)C(CC=C(C)C)(CC=C(C)C)C(=O)C(C(=O)CCC(C)C)=C1O [AH39-F1, 3,5-dihydroxy-4,6,6-tris(3-methylbut-2-en-1-yl)-2-(4-methylpentanoyl)cyclohexa-2,4-dien-1-one], the IC50 [1] was less than 25 µM.
With CC(C)=CCC1=C(O)C(C(=O)C(C)C)=C(O)C(CC=C(C)C)(CC=C(C)C)C1=O [Colupulone, Co-lupulone] the IC50 was less than 7 µM.
Work on CC(C)=CCC1=C(O)C(CC=C(C)C)(CC=C(C)C)C(=O)C(C(=O)C(C)C)=C1O [LB.70-F2, 3,5-dihydroxy-4,6,6-tris(3-methylbut-2-en-1-yl)-2-(2-methylpropanoyl)cyclo-hexa-2,4-dien-1-one] yielded an IC50 of less than 7 µM.
CC(=O)C1=C(O)C(CC=C(C)C)=C(O)C(CC=C(C)C)(CC=C(C)C)C1=O [AH16-F2, 2-acetyl-3,5-dihydroxy-4,6,6-tris(3-methylbut-2-en-1-yl)cyclohexa-2,4-dien-1-one] showed an IC50 [1] greater than 25 µM.
Compound CC(C)=CCC1=C(O)C(C(=O)CC(C)C)=C(O)C(CC=C(C)C)(CC=C(C)C)C1=O [Lupulone] has an IC50 [1] of less than 7 µM.
CCC(C)C(=O)C1=C(O)C(CC=C(C)C)=C(O)C(CC=C(C)C)(CC=C(C)C)C1=O (centres unmarked) [AH8-F2, 3,5-dihydroxy-4,6,6-tris(3-methylbut-2-en-1-yl)-2-(2-methylbutanoyl)cyclohexa-2,4-dien-1-one] was tested, and the IC50 [1] was less than 25 µM.
In the case of CCC(C)CC(=O)C1=C(O)C(CC=C(C)C)=C(O)C(CC=C(C)C)(CC=C(C)C)C1=O (centres unmarked) [AH40-F1, 3,5-dihydroxy-4,6,6-tris(3-methylbut-2-en-1-yl)-2-(3-methylpentanoyl)cyclohexa-2,4-dien-1-one], the IC50 [1] is reported as greater than 25 µM.
For CCCCC(=O)C1=C(O)C(CC=C(C)C)=C(O)C(CC=C(C)C)(CC=C(C)C)C1=O [AH18-F4, 3,5-dihydroxy-4,6,6-tris(3-methylbut-2-en-1-yl)-2-pentanoylcyclohexa-2,4-dien-1-one], the IC50 [1] was less than 14 µM.

— patent EP4556004A1 (priority 2023, dated 2025)
